# Measurements as given in ChEMBL document CHEMBL1201862, “PubChem BioAssay data set” (2004).
# The source made the active and inactive calls.
# How the values were obtained:
# [1] = target: T1, Nucleotide-binding oligomerization domain-containing protein 1 (Homo sapiens, UniProt Q9Y239); assay: blockers of NOD1 pathway activity – revised, SAR follow-up (AID 2333); assay type: functional
# T1 sequence (Q9Y239 whole entry): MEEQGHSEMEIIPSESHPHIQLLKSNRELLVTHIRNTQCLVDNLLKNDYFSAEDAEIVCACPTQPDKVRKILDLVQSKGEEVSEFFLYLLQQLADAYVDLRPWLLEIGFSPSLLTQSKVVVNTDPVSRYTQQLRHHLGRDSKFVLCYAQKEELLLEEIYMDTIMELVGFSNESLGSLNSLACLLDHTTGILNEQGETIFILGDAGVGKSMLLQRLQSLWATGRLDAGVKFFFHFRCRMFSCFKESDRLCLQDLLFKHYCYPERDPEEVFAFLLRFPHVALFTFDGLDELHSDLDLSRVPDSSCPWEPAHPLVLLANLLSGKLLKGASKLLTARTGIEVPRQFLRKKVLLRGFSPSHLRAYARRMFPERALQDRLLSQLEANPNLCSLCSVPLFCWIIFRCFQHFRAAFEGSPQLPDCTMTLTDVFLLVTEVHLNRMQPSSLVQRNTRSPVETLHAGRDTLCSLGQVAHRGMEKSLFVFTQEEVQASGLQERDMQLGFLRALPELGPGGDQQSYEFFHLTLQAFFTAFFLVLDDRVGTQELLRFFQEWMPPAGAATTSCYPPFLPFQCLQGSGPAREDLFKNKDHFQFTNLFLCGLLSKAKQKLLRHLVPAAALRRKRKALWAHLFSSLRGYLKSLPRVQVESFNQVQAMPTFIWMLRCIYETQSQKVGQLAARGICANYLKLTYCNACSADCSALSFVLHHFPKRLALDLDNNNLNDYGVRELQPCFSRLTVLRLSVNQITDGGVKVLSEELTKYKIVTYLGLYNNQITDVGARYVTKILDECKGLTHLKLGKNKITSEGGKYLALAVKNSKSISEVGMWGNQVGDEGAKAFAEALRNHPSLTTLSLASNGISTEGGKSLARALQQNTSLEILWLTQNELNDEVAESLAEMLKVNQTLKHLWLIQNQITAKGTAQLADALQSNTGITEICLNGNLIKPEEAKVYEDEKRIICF
# HEK293 [2] = assay: NOD2 signaling inhibitors in MDP-stimulated cells, cell-based, uHTS, luminescence (AID 2001); assay type: functional; settings: Homo sapiens
# [3] = non-specific 3'UTR reporter inhibition in Clone20-Shn3RL – cell-based, Renilla luciferase, cherry-picked, counter-screen for Shn3 inhibitor project, dose response (AID 624133); assay type: functional
# HEK293 [4] = assay: inhibition of NOD1-driven NF-kB reporter – cell-based, luminescence, uHTS, primary screen (AID 1578); assay type: functional; settings: Homo sapiens
# HEK293 [5] = assay: cells; assay type: functional, cell-based; settings: Homo sapiens
# [6] = loss of viability in HepG2 cells – cell-based, CellTiter-Glo, cherry-picked, cytotoxicity control for Shn3 inhibitor project, dose response (AID 624134); assay type: functional
# Tumor necrosis factor = Tumor necrosis factor (Homo sapiens, UniProt P01375); assay: analog potency on TNFa NF-kB signaling – cell-based, revised, SAR follow-up (AID 2337); assay type: functional
# Chain of Tumor necrosis factor (P01375 whole entry): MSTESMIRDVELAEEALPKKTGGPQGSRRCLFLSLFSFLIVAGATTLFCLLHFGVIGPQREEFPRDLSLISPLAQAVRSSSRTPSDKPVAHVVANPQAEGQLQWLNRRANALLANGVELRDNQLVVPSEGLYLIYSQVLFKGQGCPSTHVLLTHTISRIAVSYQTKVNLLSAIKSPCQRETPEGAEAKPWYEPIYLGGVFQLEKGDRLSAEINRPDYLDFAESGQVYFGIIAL
# [7] = reduction of Shn3 3'UTR-driven luciferase in osteoblasts – cell-based, Clone20 osteoblasts, firefly luciferase, cherry-picked, dose response (AID 624132); assay type: functional;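 further: firefly luciferase luminescence from reporter carrying the Shn3 3'UTR in osteoblasts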
# HEK293 [8] = assay: cells; settings: Homo sapiens
# HEK293 [9] = assay: cells; assay type: functional, cell-based; settings: Homo sapiens; remark: listed apart in the source
# Prothrombin = Prothrombin (Homo sapiens, UniProt P00734); assay: Thrombin 1536 HTS Dose Response Confirmation. [Related pubchem assays: 1046 (Thrombin 1536 HTS; hits were confirmed in this assay)]; assay type: functional
# Coagulation factor XII = target: T2, Coagulation factor XII (Homo sapiens, UniProt P00748); assay type: functional;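 further: activated factor XIIa alpha cleaving a fluorogenic AMC peptide substrate; inhibitor potency from loss of enzyme activity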
# T2 sequence (P00748 whole entry): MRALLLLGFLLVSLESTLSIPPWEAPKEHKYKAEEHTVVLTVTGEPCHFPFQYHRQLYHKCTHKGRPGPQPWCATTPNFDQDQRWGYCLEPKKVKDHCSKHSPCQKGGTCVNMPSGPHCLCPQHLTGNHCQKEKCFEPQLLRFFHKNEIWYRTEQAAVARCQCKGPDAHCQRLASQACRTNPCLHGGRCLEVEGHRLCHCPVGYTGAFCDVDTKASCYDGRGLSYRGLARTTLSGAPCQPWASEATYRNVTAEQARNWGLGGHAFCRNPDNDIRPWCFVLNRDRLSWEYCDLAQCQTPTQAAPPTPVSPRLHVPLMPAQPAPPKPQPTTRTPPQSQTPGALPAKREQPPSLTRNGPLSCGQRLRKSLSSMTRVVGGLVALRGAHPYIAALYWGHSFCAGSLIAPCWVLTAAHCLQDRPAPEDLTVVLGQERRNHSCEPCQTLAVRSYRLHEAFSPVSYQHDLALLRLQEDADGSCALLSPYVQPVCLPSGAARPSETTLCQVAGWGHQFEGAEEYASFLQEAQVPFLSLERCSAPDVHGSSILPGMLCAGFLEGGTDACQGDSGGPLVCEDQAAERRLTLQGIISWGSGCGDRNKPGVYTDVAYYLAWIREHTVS
# Cytochrome P450 3A4 = Cytochrome P450 3A4 (Homo sapiens, UniProt P08684);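 further: CYP3A4 tested as one member of a cytochrome P450 panel screen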
# Chain of Cytochrome P450 3A4 (P08684 whole entry): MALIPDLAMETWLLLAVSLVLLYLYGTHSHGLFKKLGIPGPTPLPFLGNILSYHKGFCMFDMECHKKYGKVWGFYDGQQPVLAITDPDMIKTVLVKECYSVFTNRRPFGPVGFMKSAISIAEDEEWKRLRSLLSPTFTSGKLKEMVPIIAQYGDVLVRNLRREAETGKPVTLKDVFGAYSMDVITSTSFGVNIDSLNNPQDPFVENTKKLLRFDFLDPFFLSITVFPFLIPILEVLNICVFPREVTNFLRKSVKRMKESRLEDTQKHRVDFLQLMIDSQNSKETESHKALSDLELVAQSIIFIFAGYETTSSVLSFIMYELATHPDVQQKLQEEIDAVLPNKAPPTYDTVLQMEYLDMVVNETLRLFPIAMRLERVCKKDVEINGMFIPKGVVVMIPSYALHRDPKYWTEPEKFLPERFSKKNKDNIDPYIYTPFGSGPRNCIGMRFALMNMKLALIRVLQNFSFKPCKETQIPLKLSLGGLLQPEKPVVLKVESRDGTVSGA
# Protein RecA = target: T3, Protein RecA (Mycobacterium tuberculosis, UniProt P9WHJ3); assay: Fluorescence Cell-Free Homogeneous Dose Retest to Identify Inhibitors of RecA-Intein Splicing Activity. [Related pubchem assays (depositor defined):AID2097, AID2223, AID489010, AID492950]; assay type: functional
# T3 sequence (P9WHJ3 whole entry): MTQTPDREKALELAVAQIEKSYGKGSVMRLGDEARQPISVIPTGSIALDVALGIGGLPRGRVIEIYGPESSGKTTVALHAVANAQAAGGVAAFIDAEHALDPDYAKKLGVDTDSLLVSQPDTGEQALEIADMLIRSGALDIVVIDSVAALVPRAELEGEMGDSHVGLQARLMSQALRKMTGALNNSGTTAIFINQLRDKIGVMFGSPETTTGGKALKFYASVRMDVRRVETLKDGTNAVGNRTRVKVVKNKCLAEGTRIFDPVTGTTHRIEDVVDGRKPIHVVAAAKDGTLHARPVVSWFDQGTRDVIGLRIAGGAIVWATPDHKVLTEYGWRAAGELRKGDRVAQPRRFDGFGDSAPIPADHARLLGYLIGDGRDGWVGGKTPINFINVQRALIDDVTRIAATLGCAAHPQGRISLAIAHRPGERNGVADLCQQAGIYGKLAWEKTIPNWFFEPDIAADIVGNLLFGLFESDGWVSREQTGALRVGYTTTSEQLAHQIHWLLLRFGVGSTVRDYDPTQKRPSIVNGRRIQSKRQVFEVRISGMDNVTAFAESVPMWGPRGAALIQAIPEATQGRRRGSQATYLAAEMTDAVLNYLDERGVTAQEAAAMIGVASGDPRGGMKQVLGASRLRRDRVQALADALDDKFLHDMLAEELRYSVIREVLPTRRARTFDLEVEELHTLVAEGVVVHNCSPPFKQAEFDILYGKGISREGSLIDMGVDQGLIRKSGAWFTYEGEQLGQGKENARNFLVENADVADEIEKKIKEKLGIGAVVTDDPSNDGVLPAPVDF
# Nonstructural protein 1 = Nonstructural protein 1 (Influenza A virus, UniProt Q194T2); assay type: functional, Influenza A virus (A/California/07/2009(H1N1))
# Chain of Nonstructural protein 1 (Q194T2 whole entry): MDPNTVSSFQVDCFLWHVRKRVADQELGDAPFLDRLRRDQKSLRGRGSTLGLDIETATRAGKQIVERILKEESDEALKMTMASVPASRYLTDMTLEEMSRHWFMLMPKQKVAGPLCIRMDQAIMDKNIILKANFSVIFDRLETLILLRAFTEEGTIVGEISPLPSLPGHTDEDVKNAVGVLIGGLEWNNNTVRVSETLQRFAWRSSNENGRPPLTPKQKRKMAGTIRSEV
# [10] = target: T4, Replicative DNA helicase DnaB (Mycobacterium tuberculosis, UniProt P9WMR3); assay: DnaB intein splicing inhibitors, dose response, biochemical, cell-free fluorescence (AID 449749); assay type: functional
# T4 sequence (P9WMR3 whole entry): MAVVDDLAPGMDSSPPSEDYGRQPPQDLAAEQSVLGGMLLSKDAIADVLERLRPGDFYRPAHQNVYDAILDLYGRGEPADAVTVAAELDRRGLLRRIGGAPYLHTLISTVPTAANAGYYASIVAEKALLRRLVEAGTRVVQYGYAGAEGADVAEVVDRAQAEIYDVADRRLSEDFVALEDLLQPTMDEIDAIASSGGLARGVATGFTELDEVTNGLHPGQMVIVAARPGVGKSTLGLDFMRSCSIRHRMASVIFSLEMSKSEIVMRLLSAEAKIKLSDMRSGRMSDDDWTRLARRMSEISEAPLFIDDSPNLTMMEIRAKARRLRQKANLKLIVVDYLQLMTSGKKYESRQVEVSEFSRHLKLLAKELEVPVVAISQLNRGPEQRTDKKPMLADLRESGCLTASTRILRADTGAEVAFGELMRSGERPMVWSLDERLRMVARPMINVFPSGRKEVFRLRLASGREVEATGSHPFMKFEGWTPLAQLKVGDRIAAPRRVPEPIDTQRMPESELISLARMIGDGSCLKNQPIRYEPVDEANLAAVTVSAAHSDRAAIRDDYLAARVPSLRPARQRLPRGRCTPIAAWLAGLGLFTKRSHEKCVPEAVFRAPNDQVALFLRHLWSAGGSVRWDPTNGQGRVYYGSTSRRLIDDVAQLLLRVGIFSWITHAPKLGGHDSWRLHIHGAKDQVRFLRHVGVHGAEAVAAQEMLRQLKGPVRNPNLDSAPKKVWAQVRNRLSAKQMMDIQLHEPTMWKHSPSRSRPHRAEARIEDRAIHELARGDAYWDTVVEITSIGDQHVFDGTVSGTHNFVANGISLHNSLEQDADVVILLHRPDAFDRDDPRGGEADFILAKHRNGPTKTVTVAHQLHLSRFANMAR
# SUMO-activating enzyme = SUMO-activating enzyme (Homo sapiens, UniProt Q9UBT2); assay: blockers of UBC9-mediated SUMO conjugation – biochemical, AlphaScreen, SUMOylation inhibitor project, confirmation (AID 2018); assay type: functional
# Chain of SUMO-activating enzyme (Q9UBE0 whole entry): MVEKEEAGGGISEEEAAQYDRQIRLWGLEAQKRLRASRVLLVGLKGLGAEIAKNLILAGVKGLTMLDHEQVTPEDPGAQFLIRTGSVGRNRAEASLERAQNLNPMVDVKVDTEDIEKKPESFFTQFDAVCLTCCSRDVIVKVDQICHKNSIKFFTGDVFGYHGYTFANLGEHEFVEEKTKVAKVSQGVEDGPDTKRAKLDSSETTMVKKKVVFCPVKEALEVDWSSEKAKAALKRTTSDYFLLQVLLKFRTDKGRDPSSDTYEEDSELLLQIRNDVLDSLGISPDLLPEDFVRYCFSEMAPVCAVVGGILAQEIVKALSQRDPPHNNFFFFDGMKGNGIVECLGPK
# Chain of SUMO-activating enzyme (Q9UBT2 whole entry): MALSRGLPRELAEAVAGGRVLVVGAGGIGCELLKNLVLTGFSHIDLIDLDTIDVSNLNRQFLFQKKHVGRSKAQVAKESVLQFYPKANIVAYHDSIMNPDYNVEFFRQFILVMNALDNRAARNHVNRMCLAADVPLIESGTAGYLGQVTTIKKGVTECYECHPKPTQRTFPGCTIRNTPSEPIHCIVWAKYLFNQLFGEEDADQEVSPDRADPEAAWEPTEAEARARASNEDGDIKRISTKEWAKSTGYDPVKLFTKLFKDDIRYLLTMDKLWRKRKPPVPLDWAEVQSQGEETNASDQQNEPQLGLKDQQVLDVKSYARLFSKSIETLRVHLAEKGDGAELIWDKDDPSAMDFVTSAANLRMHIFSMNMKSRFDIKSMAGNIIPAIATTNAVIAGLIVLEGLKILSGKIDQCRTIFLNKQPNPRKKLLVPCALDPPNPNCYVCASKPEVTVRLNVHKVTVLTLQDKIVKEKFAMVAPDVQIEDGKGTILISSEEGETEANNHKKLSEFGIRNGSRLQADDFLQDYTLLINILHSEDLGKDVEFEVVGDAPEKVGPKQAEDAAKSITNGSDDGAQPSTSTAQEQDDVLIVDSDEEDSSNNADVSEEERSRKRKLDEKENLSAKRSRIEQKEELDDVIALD
# Cytochrome P450 2D6 = Cytochrome P450 2D6 (Homo sapiens, UniProt P10635);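 further: CYP2D6 member of a cytochrome P450 panel assay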
# Chain of Cytochrome P450 2D6 (P10635 whole entry): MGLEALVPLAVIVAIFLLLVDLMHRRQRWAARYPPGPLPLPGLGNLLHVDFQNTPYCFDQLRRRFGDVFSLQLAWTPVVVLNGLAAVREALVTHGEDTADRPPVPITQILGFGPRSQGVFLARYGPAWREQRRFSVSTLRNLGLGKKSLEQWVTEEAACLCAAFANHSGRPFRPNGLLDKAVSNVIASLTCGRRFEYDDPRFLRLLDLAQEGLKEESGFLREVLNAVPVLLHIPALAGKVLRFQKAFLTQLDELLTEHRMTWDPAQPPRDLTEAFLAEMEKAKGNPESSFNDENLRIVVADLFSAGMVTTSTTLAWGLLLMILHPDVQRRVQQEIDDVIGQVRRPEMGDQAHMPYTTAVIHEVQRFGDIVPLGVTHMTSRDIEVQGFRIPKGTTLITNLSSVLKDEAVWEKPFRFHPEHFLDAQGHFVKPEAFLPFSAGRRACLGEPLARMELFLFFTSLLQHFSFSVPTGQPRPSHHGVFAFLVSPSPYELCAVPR
# HeLa = assay: ATP-based viability loss in HeLa cells – cell-based, CellTiter-Glo luminescence, cherry-pick samples, cytotoxicity control for MITF activator project, dose response (AID 540259); assay type: functional; settings: Homo sapiens
# [11] = target: T5, Alkaline phosphatase, tissue-nonspecific isozyme (Homo sapiens, UniProt P05186); assay: potency against alkaline phosphatase TNAP – biochemical, luminescent, dose response, SAR follow-up (AID 1056)
# T5 sequence (P05186 whole entry): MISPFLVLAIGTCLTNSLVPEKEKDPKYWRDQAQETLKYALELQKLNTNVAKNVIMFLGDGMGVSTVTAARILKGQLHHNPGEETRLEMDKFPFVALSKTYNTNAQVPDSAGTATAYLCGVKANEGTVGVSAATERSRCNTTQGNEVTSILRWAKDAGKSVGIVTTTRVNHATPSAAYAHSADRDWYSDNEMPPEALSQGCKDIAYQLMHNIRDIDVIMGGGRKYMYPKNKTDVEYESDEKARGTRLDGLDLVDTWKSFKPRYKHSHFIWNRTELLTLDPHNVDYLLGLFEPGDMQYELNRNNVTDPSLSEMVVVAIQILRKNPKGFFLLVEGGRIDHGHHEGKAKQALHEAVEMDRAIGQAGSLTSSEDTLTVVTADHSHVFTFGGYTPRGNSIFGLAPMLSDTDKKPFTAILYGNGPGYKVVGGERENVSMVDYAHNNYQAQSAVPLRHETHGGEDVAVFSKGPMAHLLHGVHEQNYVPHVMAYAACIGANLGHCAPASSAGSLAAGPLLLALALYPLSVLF
# [12] = target: Glyceraldehyde-3-phosphate dehydrogenase (Homo sapiens, UniProt P04406)
# Chain of Glyceraldehyde-3-phosphate dehydrogenase (P04406 whole entry): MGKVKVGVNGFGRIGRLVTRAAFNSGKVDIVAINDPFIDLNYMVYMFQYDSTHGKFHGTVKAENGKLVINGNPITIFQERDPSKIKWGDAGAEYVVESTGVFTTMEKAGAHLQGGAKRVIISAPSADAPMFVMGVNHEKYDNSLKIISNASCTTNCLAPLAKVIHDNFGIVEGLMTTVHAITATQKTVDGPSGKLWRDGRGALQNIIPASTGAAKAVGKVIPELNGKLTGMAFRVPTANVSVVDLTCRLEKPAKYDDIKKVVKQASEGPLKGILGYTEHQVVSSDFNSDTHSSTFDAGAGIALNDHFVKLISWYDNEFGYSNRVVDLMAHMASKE
smiles,measurement,setting,value
COCC1CCN(C(=O)c2cc(COc3ccc4ncccc4c3)on2)CC1,IC50,[1],3.13 µM (active)
same,IC50,HEK293 [2],14.8 µM (inactive)
same,AC50,[3],10.5 µM (active)
same,EC50,HEK293 [4],2.31 µM (active)
same,IC50,HEK293 [5],8.36 µM (active)
same,AC50,[6],42.1 µM (active)
same,IC50,Tumor necrosis factor,4.81 µM (active)
same,AC50,[7],2.7 µM (active)
same,IC50,HEK293 [8],> 20 µM (inactive)
same,IC50,HEK293 [9],> 20 µM (inactive)
CN(Cc1ccccn1)Cc1nc(-c2ccc(Cl)cc2)no1,IC50,Prothrombin,> 50 µM (not active)
same,IC50,Coagulation factor XII,> 50 µM (inactive)
COc1ccc(C(=O)N2CCC3(CCN(Cc4nccs4)CC3)CC2)cc1,AC50,Cytochrome P450 3A4,inconclusive
COc1ccc2nc3ccccc3nc2c1N,EC50,Protein RecA,22.1 µM (active)
same,IC50,Nonstructural protein 1,32.5 µM (active)
same,AC50,[10],40.1 µM (active)
same,IC50,Coagulation factor XII,> 50 µM (inactive)
O=C(c1cnccn1)N1CCC2(CC1)CCN(c1ncccn1)CC2,AC50,Cytochrome P450 3A4,inconclusive
O=C(Nc1ccc(Br)cc1)c1ccc(N2C(=O)C3CC=C(Cl)CC3C2=O)cc1 (centres undefined),IC50,SUMO-activating enzyme,49.7 µM (active)
CC1=C(C(=O)OCC2CCCO2)C(c2ccc(C)o2)C2=C(O)CC(c3ccc(F)cc3)CC2=N1 (centres undefined),IC50,Coagulation factor XII,> 50 µM (inactive)
O=C(NNS(=O)(=O)c1ccc(Cl)cc1)C1CCN(Cc2ccccc2)CC1,AC50,Cytochrome P450 3A4,inconclusive
same,AC50,Cytochrome P450 2D6,1 µM (inconclusive)
O=C(N=Nc1c(O)n(Cc2ccccc2)c2ccccc12)c1ccc(O)cc1,AC50,HeLa,39.7 µM (active)
O=C(O)c1ccc(-c2ccccc2Cl)o1,IC50,[11],> 100 µM (inactive)
same,IC50,[12],> 100 µM (not active)
CC/C(=N\NC(=O)c1csc(C)c1C)c1cccs1,AC50,HeLa,> 350 µM (inactive)
CCOc1ccc(C)cc1S(=O)(=O)Nc1cccnc1,IC50,[11],0.858 µM (active)
same,IC50,[12],> 10 µM (inconclusive)
Cc1cc(C(=O)NCCc2ccc(O)c(O)c2)oc1C,IC50,[11],57.3 µM (active)
